In patent US20170252346A1, “PHARMACEUTICAL COMPOSITION FOR THE TREATMENT OF ACUTE TOOTH OR JAW PAIN” (SANOFI-AVENTIS DEUTSCHLAND GMBH, priority 2014, published 2017):

System: patients with post-operative dental pain
Assay: Single-center, randomized, two-stage, parallel-group double-blind clinical study of single-dose efficacy and safety in post-operative dental pain
Assay type: in vivo, human
Settings: ibuprofen 400 mg, caffeine 100 mg
Description: Clinical trials are performed in patients using the tablets produced according to example 1 and using the following study design:
Secondary goal: Evaluation of the efficacy and safety of multiple doses of the fixed combination compared with ibuprofen alone over a post-operative time period of 5 days (study stage 2).
Male and female patients between the ages of 18 and 55 years, scheduled for the extraction of 3 to 4 unsound wisdom teeth, with at least 2 extracted molars were recruited; the baseline of dental pain intensity must be at least moderate on a verbal evaluation scale and at least 5 on a numerical evaluation scale ranging from 0 to 10.
Following surgery, one tablet every 6-8 hours for 5 days has been administered.
The time-weighted sum of pain relief (PAR) and the difference in pain intensity (PID) from 0 to 8 hours (SPRID0-8H)
Secondary Endpoint • The time-weighted sum of PAR and PID from 0 to 2 hours (SPRID0-2H) • Duration of pain relief • Time to significant pain relief
The pain intensity (PI) was evaluated in a diary before administration and at 0.25, 0.5, 0.75, 1, 1.5, 2, 3, 4, 5, 6, 7 and 8 hours after the first dose of the study medication using an 11-point numerical rating scale (NPRS) from 0=“no pain” to 10=“worst possible pain”.
The pain relief (PAR) beginning from pain onset was evaluated in a patient diary using a 5-point rating scale (VRS) (0=no pain relief; 1=a little pain relief; 2=some pain relief; 3=much pain relief; 4=complete pain relief) at the same time points as for the PI evaluation.
As soon as a patient needed an emergency medication or a second dose of the medication within less than 8 hours, PI and PAR were evaluated before the emergency medication or second dose was administered.
The time-weighted sum of pain relief (PAR) and the pain intensity difference (PID) relative to baseline between 0 and 8 hours is determined as follows:
PID=PI at baseline−PI at the specific time point (here, higher PID values represent greater benefit for the patient).
Higher values of the SPRID0-8 h likewise indicate greater benefit for the patient.

[1] = Kaplan-Meyer analysis, single dose

SMILES: CC(C)Cc1ccc(C(C)C(=O)O)cc1 (racemic) [Ibuprofen, (+/−) 2-(p-isobutylphenyl)-propionic acid]
- Mean time to obtain relief (time to significant/meaningful pain relief) [1]: 2.5 h
- Median duration of action [1]: 7.1 h
- Adjusted Mean SPRID0-2h value (time-weighted sum of PAR and PID 0 to 2 hours after single dose): 6.990
- Adjusted Mean SPRID0-8h value (time-weighted sum of pain relief (PAR) and pain intensity difference (PID) 0 to 8 hours after single dose, study stage 1): 40.165
